These are literature values, as cited in patent publication US20030157192A1, “Low temperature disinfectant/sterilant for medical devices and topical applications” (Healthpoint, Ltd., priority 2002, published 2003).

The conditions of series [1]: room temperature; low pH.
Series [2] concerns mouse skin. The conditions noted are these: tested on mouse skin.

As to `OO` [6% hydrogen peroxide, hydrogen peroxide], in series [1], the “minimum time required to pass the AOAC Sporicidal Test” value is not below 6 h. For `CC(=O)OO` [Peracetic acid], the tumor promotion result in series [2] is on record as “tumor-promoting agent”.
